Several values for one entry are separate records, joined by “and”; a condition that tells them apart may be missing. Identical values can stand only once. Where a SMILES comes first, the peptide text is derived from it.

The source of these data is patent publication US12507703B2, “Methods, devices and compositions for preserving human milk” (The Trustees of Princeton University, priority 2023, dated 2025).

This experiment deals with lipase. Briefly: Lipase/lipolysis assay (EnzChek Lipase Substrate, quenched BODIPY-fatty acid conjugate) on stored human milk. Also: test concentration or dose not given here.
As to `CC(C)=CCC[C@](C)(O[C@@H]1O[C@H](CO)[C@@H](O)[C@H](O)[C@H]1O)[C@H]1CC[C@]2(C)[C@@H]1[C@H](O)C[C@@H]1[C@@]3(C)CC[C@H](O[C@@H]4O[C@H](CO)[C@@H](O)[C@H](O)[C@H]4O)C(C)(C)[C@@H]3CC[C@]12C` [Ginsenoside F2], the “Lipase (RFU)” value stood at 926.1742 RFU.

On to `C[C@H](N)C(=O)NCC(=O)O` [(S)-2-(2-Aminopropanamido)acetic acid] (H-Ala-Gly-OH), for which the “Lipase (RFU)” value is 993.8076 RFU.

With `CC1(C)CC[C@]2(C(=O)O[C@@H]3O[C@H](CO)[C@@H](O)[C@H](O)[C@H]3O)CC[C@]3(C)C(=CC[C@@H]4[C@@]5(C)CC[C@H](O[C@@H]6O[C@H](C(=O)O)[C@@H](O[C@@H]7O[C@@H](CO)[C@H](O)[C@H]7O)[C@H](O)[C@H]6O)C(C)(C)[C@@H]5CC[C@]43C)[C@@H]2C1` [Araloside A], the “Lipase (RFU)” value is given as 938.5227 RFU.

Take Mannan: the “Lipase (RFU)” value turned out to be 1091.353 RFU.

With `O=C1C[C@@H](c2ccc(O)cc2)Oc2cc(O[C@@H]3O[C@H](CO)[C@@H](O)[C@H](O)[C@H]3O)ccc21` [Neoliquiritin], the “Lipase (RFU)” value worked out at 772.4579 RFU.

As for `COc1cc(O)c2c(c1)OC(c1ccc(OC)c(O)c1)CC2=O` (stereo not shown) [Persicogenin], the “Lipase (RFU)” value is recorded as 1028.526 RFU.

For `C=C1[C@H]2CC[C@@H]3[C@H]2C(C)(C)CCC[C@]13C` [(+)-Longifolene], the “Lipase (RFU)” value was 1228.195 RFU.

`COc1cc(O[C@@H]2O[C@H](CO[C@@H]3O[C@H](CO)[C@@H](O)[C@H](O)[C@H]3O)[C@@H](O)[C@H](O)[C@H]2O)c2c(O)c3c(=O)oc(C)cc3cc2c1` [Cassiaside C]: the “Lipase (RFU)” value worked out at 979.0974 RFU.

`OC[C@H]1O[C@@H](Oc2cc3c(O)cc(O)cc3[o+]c2-c2cc(O)c(O)c(O)c2)[C@H](O)[C@@H](O)[C@@H]1O.[Cl-]` [Delphinidin 3-glucoside (chloride)]: the “Lipase (RFU)” value is given as 843.0852 RFU.

`C=CCc1ccc(O)c(-c2cc(CC=C)ccc2O)c1` [Magnolol]: the “Lipase (RFU)” value stood at 941.9616 RFU.

`COc1cc(CCN)ccc1O.Cl` [3-Methoxytyramine (hydrochloride)]: the “Lipase (RFU)” value is given as 963.841 RFU.

Turning to `O=c1cc(-c2ccc(O)c(O)c2)oc2cc(O[C@@H]3O[C@H](CO)[C@@H](O)[C@H](O)[C@H]3O)cc(O)c12` [Cynaroside], the “Lipase (RFU)” value turned out to be 1111.46 RFU.

Take `CCCCCCC[C@H](O)CC(=O)CCc1ccc(O)c(OC)c1` [Compound 8-Gingerol]: the “Lipase (RFU)” value came to 724.4815 RFU.

Take `COc1ccc(-c2cc(=O)c3c(OC)c(OC)c(OC)c(OC)c3o2)cc1O` [3′-Demethylnobiletin]: the “Lipase (RFU)” value is reported as 794.5882 RFU.

For the compound `CCCCCC(O)/C=C/C=O` (stereo not shown) [Compound 4-Hydroxynonenal, 4-Hydroxynonenal], the “Lipase (RFU)” value was determined as 827.4103 RFU.

Regarding Solanesol, the “Lipase (RFU)” value is listed as 985.7418 RFU.

Consider `C[N+](C)(C)CCOP(=O)(O)O.[Cl-]` [Phosphorylcholine (chloride)], for which the “Lipase (RFU)” value worked out at 831.0181 RFU.

With `CC(C)=CCC[C@](C)(O[C@@H]1O[C@H](CO)[C@@H](O)[C@H](O)[C@H]1O)[C@H]1CC[C@]2(C)[C@@H]1[C@H](O)C[C@@H]1[C@@]3(C)CC[C@H](O)C(C)(C)[C@@H]3[C@@H](O[C@@H]3O[C@H](CO)[C@@H](O)[C@H](O)[C@H]3O)C[C@]12C` [Ginsenoside Rg1], the “Lipase (RFU)” value stood at 1026.433 RFU.

Turning to `CN(CC(=O)O)C(=N)NP(=O)(O)O` [Phosphocreatine], the “Lipase (RFU)” value stood at 915.1867 RFU.

In the case of Dextran, the “Lipase (RFU)” value is 949.1554 RFU.

For the compound `O=C1O[C@H]2[C@@H]3OC(=O)c4cc(O)c(O)c(O)c4-c4c(O)c(O)c5oc(=O)c6c(c(O)c(O)c7oc(=O)c4c5c76)-c4c(cc(O)c(O)c4O)C(=O)OC[C@H]3OC(O)[C@@H]2OC(=O)c2cc(O)c(O)c(O)c2-c2c1cc(O)c(O)c2O` (mixture of isomers) [Punicalagin], the “Lipase (RFU)” value amounted to 646.9241 RFU.

For `C[C@@H]1O[C@@H](Oc2cc(O)c3c(=O)c(O)c(-c4ccc(O)cc4)oc3c2)[C@H](O)[C@H](O)[C@H]1O` [Kaempferol-7-O-rhamnoside], the “Lipase (RFU)” value is reported as 963.8327 RFU.

`O=C1/C(=C2\Nc3ccc(S(=O)(=O)[O-])cc3C2=O)Nc2ccc(S(=O)(=O)[O-])cc21.[Na+].[Na+]` [Indigo carmine]: the “Lipase (RFU)” value was 862.5624 RFU.

In the case of `Oc1cc(O)c2c(c1)O[C@H](c1ccc(O)c(O)c1)[C@H](O)C2` [(−)-Epicatechin], the “Lipase (RFU)” value is 927.1089 RFU.

On to (+)-Secoisolariciresinol, for which the “Lipase (RFU)” value turned out to be 1148.179 RFU.

On to `CC1(C)Oc2cc3oc(-c4cc(O)cc(O)c4)cc3cc2C[C@H]1O` [Moracin P], for which the “Lipase (RFU)” value worked out at 751.9577 RFU.

For the compound `COc1ccc2c(c1OC)CN(C)CCc1cc3c(cc1C(=O)C2)OCO3` [Allocryptopine], the “Lipase (RFU)” value is 960.1838 RFU.

In the case of `NC(N)=NCCCC[C@H](N)C(=O)O` [H-HoArg-OH], the “Lipase (RFU)” value is reported as 745.4822 RFU.

With `COc1cc(-c2oc3cc(O[C@@H]4O[C@H](CO)[C@@H](O)[C@H](O)[C@H]4O)cc(O)c3c(=O)c2O)ccc1O` [Brassicin], the “Lipase (RFU)” value is 1089.017 RFU.

With `O=c1c(O[C@@H]2O[C@H](CO)[C@@H](O)[C@H](O)[C@H]2O[C@@H]2O[C@H](CO)[C@@H](O)[C@H](O)[C@H]2O)c(-c2ccc(O)cc2)oc2cc(O)cc(O)c12` [Kaempferol 3-O-sophoroside], the “Lipase (RFU)” value was 867.3846 RFU.

`CCCCC/C=C\C/C=C\CCCCCCCC(=O)O[C@H](COC(=O)CCCCCCCCCCCCCCCCC)COP(=O)([O-])OCC[N+](C)(C)C`: the “Lipase (RFU)” value is 1049.632 RFU.

`N=C(N)NOCC[C@H](N)C(=O)O.O=S(=O)(O)O` [L-Canavanine sulfate]: the “Lipase (RFU)” value is 903.0256 RFU.

On to `CC(C)C12CCC(C)(CC1)O2` [1,4-Cineole], for which the “Lipase (RFU)” value is 770.6625 RFU and 1018.049 RFU.

For `O=c1cc(-c2ccc(O)cc2)oc2c([C@@H]3OC[C@@H](O)[C@H](O)[C@H]3O)c(O)c([C@@H]3O[C@H](CO)[C@@H](O)[C@H](O)[C@H]3O)c(O)c12` [Vicenin 3], the “Lipase (RFU)” value is reported as 1057.755 RFU.

For the compound `OC[C@H]1O[C@H](OC[C@H]2O[C@H](OC[C@H]3O[C@H](O[C@]4(CO)O[C@H](CO)[C@@H](O)[C@@H]4O)[C@H](O)[C@@H](O)[C@@H]3O)[C@H](O)[C@@H](O)[C@H]2O)[C@H](O)[C@@H](O)[C@H]1O` [Stachyose], the “Lipase (RFU)” value is on record as 882.4617 RFU.

Regarding `CCCCCC/C=C\CCCCCCCCCCCC(=O)O` [Paullinic acid], the “Lipase (RFU)” value is recorded as 1192.519 RFU.

Take `Cc1cc(O)c2c(c1)C(=O)c1cc(O)cc(O[C@@H]3O[C@H](CO)[C@@H](O)[C@H](O)[C@H]3O)c1C2=O` [Emodin-1-O-β-D-glucopyranoside]: the “Lipase (RFU)” value was 964.8621 RFU.

With `COc1cc(C2Oc3ccc([C@H]4Oc5cc(O)cc(O)c5C(=O)[C@@H]4O)cc3OC2CO)ccc1O` (stereo partly shown) [Isosilybin], the “Lipase (RFU)” value is recorded as 921.7702 RFU.

For the compound `COc1cc(CCN)ccc1O` [Compound 3-Methoxytyramine, 3-Methoxytyramine], the “Lipase (RFU)” value was found to be 821.2607 RFU.

In the case of `Oc1cc(O)c2c(c1)O[C@H](c1ccc(O)c(O)c1)[C@H](O)[C@H]2c1c(O)cc(O)c2c1O[C@H](c1ccc(O)c(O)c1)[C@H](O)C2` [Procyanidin B2], the “Lipase (RFU)” value was determined as 808.3168 RFU.

On to Cytidine-2′,3′-cyclic monophosphate, for which the “Lipase (RFU)” value was 1332.358 RFU.

As for `Cc1cc(O)c(C)c2c1O[C@](C)(CCC[C@H](C)CCC[C@H](C)CCCC(C)C)CC2` (relative stereo) [(rel)-β-Tocopherol], the “Lipase (RFU)” value was 1146.301 RFU.

For the compound Prosapogenin A, the “Lipase (RFU)” value is given as 965.3667 RFU.

As for `CC(CC(=O)C[C@@H](C)[C@H]1CC(=O)[C@@]2(C)C3=C(C(=O)C[C@]12C)[C@@]1(C)CC[C@H](O)C(C)(C)[C@@H]1C[C@@H]3O)C(=O)O` (stereo partly shown) [Ganoderic acid B], the “Lipase (RFU)” value is 879.1619 RFU.

`O=c1cc(-c2ccc(O)cc2)oc2cc(O)c([C@@H]3O[C@H](CO)[C@@H](O)[C@H](O)[C@H]3O[C@@H]3OC[C@H](O)[C@H](O)[C@H]3O)c(O)c12` [Isovitexin 2″-O-arabinoside]: the “Lipase (RFU)” value worked out at 1033.269 RFU.

On to `O=C(O)[C@@H](O)[C@H](O)C(=O)O` [D-Tartaric Acid], for which the “Lipase (RFU)” value is on record as 685.8128 RFU.

As for `CC(C)(O)/C=C/C(=O)[C@](C)(O)[C@H]1[C@H](O)C[C@@]2(C)[C@@H]3CC=C4[C@@H](C[C@H](O)C(=O)C4(C)C)[C@]3(C)C(=O)C[C@]12C` [Cucurbitacin D], the “Lipase (RFU)” value turned out to be 937.0398 RFU.

In the case of `O=S(=O)([O-])c1ccc(N=Nc2c(O)ccc3cc(S(=O)(=O)[O-])ccc23)cc1.[Na+].[Na+]` [Sunset Yellow FCF], the “Lipase (RFU)” value is recorded as 868.5434 RFU.

With `O=C(O)C[C@@H](O)C(=O)O` [D-Malic Acid], the “Lipase (RFU)” value is on record as 752.7528 RFU.

Take `C[C@]12CCC(=O)C=C1CC[C@@H]1[C@@H]2C(=O)C[C@]2(C)C(=O)CC[C@@H]12` [Adrenosterone]: the “Lipase (RFU)” value amounted to 757.5347 RFU.

Consider `C[C@@H]1NC(=O)N[C@@H]1CCCCCC(=O)O` [D-Desthiobiotin], for which the “Lipase (RFU)” value stood at 791.1157 RFU.

As to `C[N+](C)(C)CCOP(=O)(O)O` [Phosphoryl Choline], the “Lipase (RFU)” value worked out at 931.0385 RFU.

Take `CN1[C@@H]2CC[C@H]1CC(=O)C2` [Tropinone]: the “Lipase (RFU)” value was determined as 856.4439 RFU.

Regarding `CCCCCCCC/C=C\CCCCCCCC(=O)O[C@H](CC(=O)[O-])C[N+](C)(C)C` [Oleoylcarnitine], the “Lipase (RFU)” value was determined as 870.8673 RFU.

Consider `COc1cccc(C=O)c1` [m-Anisaldehyde], for which the “Lipase (RFU)” value came to 1038.646 RFU.

With `N[C@@H](CCC(=O)N[C@@H](Cc1ccccc1)C(=O)O)C(=O)O` [γ-Glu-Phe], the “Lipase (RFU)” value came out at 1077.051 RFU.

As for `O=C(O)[C@H](O)[C@@H](O)[C@H](O)[C@H](O)CO` [D-Gluconic Acid], the “Lipase (RFU)” value amounted to 876.4287 RFU.

As for `NC(=O)c1ccc[n+]([C@@H]2O[C@H](COP(=O)([O-])OP(=O)(O)OC[C@H]3O[C@@H](n4cnc5c(N)ncnc54)[C@H](OP(=O)([O-])[O-])[C@@H]3O)[C@@H](O)[C@H]2O)c1.[Na+].[Na+]` [NADP (disodium salt)], the “Lipase (RFU)” value worked out at 762.8961 RFU.
